Experimental data: patent US7473788B2, “Analogs of terpene trilactones from Ginkgo biloba and related compounds and uses thereof” (The Trustees of Columbia University in the City of New York, priority 2002, dated 2009)
pIC50, pKi: −log10 of the molar value. Like-named read-outs stand apart in the source and are kept apart here.

What was measured:
PAFR [1] = target: T1, PAFR (Cavia porcellus, UniProt P21556); assay type: binding, PAFR transgenic mice
PAFR [2] = target: T1, PAFR; test: biochemical
PAFR [3] = details: PAF-induced rabbit platelet aggregation (Park, 1996; Hu, 1999; Hu, 2000); cited from earlier work
PAFR [4] = details: literature (Pietri, 2001; Jaracz, 2002); cited from earlier work
PAFR [5] = target: T1, PAFR; details: for pKi: Inhibition of [^3H]-WEB 2086 binding, cloned PAFR, Cheng-Prusoff from IC50; for PAFR binding (in words): at the concentrations tested
PAFR [6] = test: PAFR antagonism in previous or preliminary studies (literature, unpublished results); details: preliminary studies (Suehiro, unpublished results)
[7] = Inhibition of [^3H]-WEB 2086 binding, means of two independent experiments performed in triplicate, read-out: Ki
[8] = Ki, Inhibition of [^3H]-WEB 2086 binding, means of two independent experiments performed in triplicate

T1 sequence (P21556 whole entry): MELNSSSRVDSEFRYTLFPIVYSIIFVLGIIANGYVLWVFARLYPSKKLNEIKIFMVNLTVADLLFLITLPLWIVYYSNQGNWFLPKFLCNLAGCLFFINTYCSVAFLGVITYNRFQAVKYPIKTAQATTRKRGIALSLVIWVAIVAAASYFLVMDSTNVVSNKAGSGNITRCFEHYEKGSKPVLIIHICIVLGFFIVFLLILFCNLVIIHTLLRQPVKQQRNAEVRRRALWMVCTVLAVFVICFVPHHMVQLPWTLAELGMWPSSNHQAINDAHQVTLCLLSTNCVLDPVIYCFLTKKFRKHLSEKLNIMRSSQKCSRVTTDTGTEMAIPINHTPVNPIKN

Molecule: CC1C(=O)OC2C(O)C34C5CC(C(C)(C)C)C36C(OC(=O)C6O)OC4(C(=O)O5)C12O (stereo not shown) [GB (2), ginkgolide B, reference compound]
- fold more potent than GC (2) (PAFR [1]; ratio of Ki): ca. 25
- pKi (PAFR [1]; read-out: Ki): 6.06
- pKi (PAFR [2]): 6.25
- pIC50 (PAFR [3]): ~6.70

Molecule: CC1C(=O)OC2C(O)C34C5CC(C(C)(C)C)C36C(OC(=O)C6OCc3c(F)c(F)c(N=[N+]=[N-])c(F)c3F)OC4(C(=O)O5)C12O (stereo not shown) [Compound 8c, 10-O-tetrafluorobenzylazide ginkgolide B]
- pKi (PAFR [2]): 7.05

Molecule: CC1C(=O)OC2C(O)C34C5CC(C(C)(C)C)C36C(OC(=O)C6OCc3ccccc3)OC4(C(=O)O5)C12O (stereo not shown) [10-OBn-GB (28), 10-O-Benzyl Ginkgolide B]
- pKi (PAFR [1]; [7]): 6.92

Molecule: 7-O-(4-methylphenyl)-GB
- PAFR activity (in words) (PAFR [4]): devoid of PAFR activity

Molecule: C[C@@H]1C(=O)O[C@@H]2[C@H]1[C@@]13OC4OC(=O)[C@H](O)C45[C@H](C(C)(C)C)[C@@H](O)C(OC1=O)[C@]53[C@H]2O (stereo partly shown) [GM (5), ginkgolide M]
- pKi (PAFR [5]): < 4.30
- PAFR binding (in words) (PAFR [5]): devoid of PAFR binding

Molecule: ginkgolide J [GJ (4)]
- pKi (PAFR [5]): 5.00

Molecule: CC1C(=O)OC2C(O)C34C5CC(C(C)(C)C)C36C(OC(=O)C6OCc3ccc(C6(C(F)(F)F)N=N6)cc3)OC4(C(=O)O5)C12O (stereo not shown) [Compound 8b, 10-O-(trifluoromethyl-3H-diazirine)benzyl ginkgolide B]
- pKi (PAFR [2]): 6.82

Molecule: CC1C(=O)OC2C(O)C34C5OC(=O)C3(OC3OC(=O)C(O)C34C(C(C)(C)C)C5O)C12O (stereo not drawn) [7-epi-GC (18), 7-Epi-ginkgolide C]
- pKi (PAFR [1]; [8]): 5.37

Molecule: CCNC1C(C(C)(C)C)C23C(OC(=O)C2O)OC24C(=O)OC1C32C(O)C1OC(=O)C(C)C14O (stereo not drawn) [7α-NHEt-GB (26), 7α-N-Ethylamino Ginkgolide B]
- pKi (PAFR [1]; [7]): 5.79
- pKi (PAFR [1]; [8]): 5.79 to 6.26

Molecule: 10-O-benzophenone-7-O-dansyl ginkgolide C [Compound 10a]
- pKi (PAFR [5]): 5.40
- times less active than 9a (PAFR [5]; ratio of Ki): ca. 6

Molecule: 10-O-benzoylbenzoic ginkgolide C [Compound 11]
- pKi (PAFR [5]): 6.89

Molecule: CC1C(=O)OC2C(O)C34C5OC(=O)C3(OC3OC(=O)C(OCc6ccccc6)C34C(C(C)(C)C)C5O)C12O (stereo not shown) [10-OBn-GC (29), 10-O-Benzyl Ginkgolide C]
- pKi (PAFR [1]; [7]): 5.78

Molecule: COC1C(=O)OC2OC34C(=O)OC5CC(C(C)(C)C)C21C53C(O)C1OC(=O)C(C)C14O (stereo not shown) [Compound 14, 10-O-Methyl ginkgolide B]
- pKi (PAFR [2]): 5.50

Molecule: CC1C(=O)O[C@H]2C(O)C34C5OC(=O)[C@@]3(OC3OC(=O)[C@H](O)C34C(C(C)(C)C)[C@@H]5N=[N+]=[N-])[C@@]12O (stereo partly drawn) [7α-N3-GB (20), 7α-Azido Ginkgolide B]
- pKi (PAFR [1]; [7]): 6.26

Molecule: CC1C(=O)OC2C(OS(=O)(=O)c3cccc4c(N(C)C)cccc34)C34C5OC(=O)C3(OC3OC(=O)C(OCc6ccc(C(=O)c7ccccc7)cc6)C34C(C(C)(C)C)C5O)C12O (stereo not shown) [Compound 10b, 10-O-benzophenone-1-O-dansyl ginkgolide C]
- pKi (PAFR [2]): 6.02
- times more potent than 10a (PAFR [5]): ca. four

Molecule: CC1C(=O)OC2C(O)C34C5OC(=O)C3(OC3OC(=O)C(O)C34C(C(C)(C)C)C5Cl)C12O (stereo not drawn) [7α-Cl-GB (22), 7α-Chloro Ginkgolide B]
- fold more potent than GC (2) (PAFR [1]; ratio of Ki): 115
- times more potent than GB (1) (PAFR [1]; ratio of Ki): 8

Molecule: CNC1C(C(C)(C)C)C23C(OC(=O)C2O)OC24C(=O)OC1C32C(O)C1OC(=O)C(C)C14O (stereo not drawn) [7α-NHMe-GB (25), 7α-N-Methylamino Ginkgolide B]
- pKi (PAFR [1]; [7]): 6.21
- pKi (PAFR [1]; [8]): 5.79 to 6.26

Molecule: CC1C(=O)OC2C(O)C34C5OC(=O)C3(OC3OC(=O)C(OCc6c(F)c(F)c(N=[N+]=[N-])c(F)c6F)C34C(C(C)(C)C)C5O)C12O (stereo not shown) [Compound 9c, 10-O-tetrafluorobenzylazide ginkgolide C]
- pKi (PAFR [2]): 6.10

Molecule: Neoginkgolide C [Compound 23]
- pKi (PAFR [1]; [7]): < 4.40

Molecule: CC1C(=O)OC2C(O)C34C5OC(=O)C3(OC3OC(=O)C(O)C34C(C(C)(C)C)C5F)C12O (stereo not shown) [Compound 13, 7-Fluoro ginkgolide B]
- fold more potent as a PAFR antagonist compared to GC (2) (PAFR [6]): 15
- fold more potent / improved affinity to PAFR relative to GC (3) (PAFR [5]): ca. 10

Molecule: CC(C)(C)[C@]1(O)CC2OC(=O)CC23C(=O)OC2OC(=O)[C@H](O)C231 (stereo partly shown) [BB (6), bilobalide]
- pKi (PAFR [5]): < 4.30
- PAFR binding (in words) (PAFR [5]): not active in concentrations up to 100 μM

Molecule: CC1C(=O)OC2C(O)C34C5OC(=O)C3(OC3OC(=O)C(OCc6ccccc6)C34C(C(C)(C)C)C5O)C12O (stereo not drawn) [10-OBn-epi-GC (31), 10-O-Benzyl-7-epi-ginkgolide C]
- pKi (PAFR [1]; [7]): 6.22
- fold improved affinity compared to non-benzylated derivative (PAFR [1]; ratio of Ki): 7

Molecule: CC1C(=O)OC2C(O)C34C5OC(=O)C3(OC3OC(=O)C(OCc6ccccc6)C34C(C(C)(C)C)C5F)C12O (stereo not drawn) [10-OBn-7α-F-GB (30), 10-O-Benzyl-7α-fluoro Ginkgolide B]
- pKi (PAFR [1]; [8]): 7.00
- fold improved affinity compared to non-benzylated derivative (PAFR [1]; ratio of Ki): 10

Molecule: CC1C(=O)OC2C(O)C34C5OC(=O)C3(OC3OC(=O)C(O)C34C(C(C)(C)C)C5O)C12O (stereo not shown) [GC (3), ginkgolide C, reference compound]
- pKi (PAFR [2]): 4.90

Molecule: CC1C(=O)OC2C(O)C34C5OC(=O)C3(OC3OC(=O)C(O)C34C(C(C)(C)C)C5OC(=O)Cc3ccccc3)C12O (stereo not drawn) [7α-OCOCH2Ph-GB (19), 7α-O-Phenylacetate Ginkgolide B]
- pKi (PAFR [1]; [8]): 5.62

Molecule: C[C@@H]1C(=O)O[C@H]2C[C@@]34[C@H]5C[C@@H](C(C)(C)C)[C@]36[C@@H](OC(=O)[C@@H]6O)O[C@@]4(C(=O)O5)[C@]21O [GA (1), ginkgolide A]
- pKi (PAFR [5]): 5.84

Molecule: CC(=O)OC1C(C(C)(C)C)C23C(OC(=O)C2O)OC24C(=O)OC1C32C(O)C1OC(=O)C(C)C14O (stereo not drawn) [7α-OAc-GB (17), 7α-O-Acetate Ginkgolide B]
- pKi (PAFR [1]; [7]): 5.11
